Reference: patent US12460184B2, “Cell primed with CTGF-D4 and insulin or IGF-1 and use in methods for cardiac tissue repair” (University of Vermont and State Agriculture College, priority 2013, dated 2025)

Key:
adult rat CPCs [1] = assay: Signal transduction inhibitor studies, CPCs cultured in CdM; type: cell-based; conditions: for cell number ratio to control cell number: CPCs in MSC CdM, 48 hrs, control CdM+DMSO = 100%
Description: (§1) Adult rat CPCs and cardiac fibroblasts were plated at 500 cells/cm^2 and cultured in their respective growth mediums. Three days after plating, the medium was removed, the wells were washed twice with PBS, and the cells were then exposed to CdM or to fresh serum-free medium (Alpha-MEM). For time course proliferation studies, CdM and serum-free medium were changed every 2 days. In signal transduction inhibitor studies, the following pharmacological inhibitors were used: AG490, inhibitor of Jak2/STAT3 pathway; Stattic, inhibitor of STAT3; LY294002, inhibitor of phosphatidylinositol 3-kinase (PI3K)/Akt pathway; and PD98059, inhibitor of extracellular signal-regulated kinase (ERK). All of the inhibitors were purchased from Calbiochem (Darmstadt, Germany) and were dissolved in dimethyl sulfoxide (DMSO). CPCs were cultured in CdM with the inhibitors or with the equivalent volume of DMSO as a control for 48 hrs. In cell protection studies, 3 days after plating, medium was replaced with either the CdM or serum-free medium and the cells were exposed to hypoxia in a specialized incubator (1% oxygen) for 48 hrs. The hypoxia incubator was a model that measured both CO2 and O2 (Thermo Electron, Forma Series II, model 3130). Oxygen was maintained at 1% by the injection of nitrogen gas and was monitored continuously. Cell numbers were quantified by the fluorescent labeling of nucleic acids (CyQuant dye; Molecular Probes, Carlsbad, CA) and with a microplate fluorescence reader (FL×800; Bio-Tek Instruments Inc., Winooski, VT) set to 480 nm excitation and 520 nm emission. Each experiment was repeated a minimum of 3 times.

adult rat CPCs [2] = assay: CPC protection during hypoxia (1% oxygen, 48 hrs); type: cell-based; conditions: for CPC number after hypoxia: 30 ng/ml alone, control SFM with 1% BSA 9004 cells, mean±SD; for CdM-mediated protection of CPCs under hypoxic conditions: STAT3 inhibitor 10 μM added to CdM; for protection of CPCs against 48 hr of hypoxia: 1 ng/ml (each) in SFM
Description: as §1, with “continuously.” for “continuously. Cell numbers were quantified by the fluorescent labeling of nucleic acids (CyQuant dye; Molecular Probes, Carlsbad, CA) and with a microplate fluorescence reader (FL×800; Bio-Tek Instruments Inc., Winooski, VT) set to 480 nm excitation and 520 nm emission. Each experiment was repeated a minimum of 3 times.”
Cell numbers were quantified by the fluorescent labeling of nucleic acids (CyQuant dye; Molecular Probes, Carlsbad, CA) and with a microplate fluorescence reader (FL×800; Bio-Tek Instruments Inc., Winooski, VT) set to 480 nm excitation and 520 nm emission. Each experiment was repeated a minimum of 3 times.

Akt = assay: Immunoblotting for phosphorylated Akt in CPCs; type: cell-based, rat; conditions: recombinant human Insulin, 30 min incubation
Description: (§2) Cells were lysed in a buffer that consisted of 0.1% sodium dodecyl sulphate (SDS) and complete protease inhibitor cocktail (Roche, Basel, Switzerland) in PBS. Protein concentration was determined by the DC protein assay (Biorad, Hercules, CA). Twenty μg of protein was separated by SDS-PAGE. After electrophoresis, the gels were electroblotted to polyvinylidene difluoride (PVDF) membranes. All electrophoresis and electroblotting used Novex reagents and systems (Invitrogen, Carlsbad, Calif.). The blots were blocked for 1 hr at RT in 5% nonfat dry milk in PBS with 0.1% Tween 20 (PBST), washed 3×5 min in PBST, and incubated in primary antibodies in PBST with 5% BSA overnight at 4° C. After 3×5 min washes in PBST, the blots were incubated in secondary antibody conjugated to horseradish peroxidase conjugate (1:2000, Sigma) in PBST for 1 hr at RT. Unbound secondary antibody was removed and positive bands were detected with a chemiluminescent reaction. The primary antibodies for immunoblotting were Ki67 (clone SP6, 1:200, Abcam, Cambridge, MA); p-STAT3 (Tyr705, 1:1000), total STAT3 (1:1000), p-Akt (Ser 473, 1:1000)(Cell signaling); and β-actin (1:5000, Sigma).

STAT3 = assay: Immunoblotting for phosphorylated STAT3 in CPCs; type: cell-based, rat; conditions: 3 ng/ml, 30 min, SFM containing 1% BSA
Description: as §2

EPDCs [3] = assay: EPDC protection by CTGF-D4 under hypoxia (1% oxygen, 48 hr); type: cell-based, rat; conditions: blocker added
canonical Wnt pathway = assay: Canonical Wnt pathway signaling in EPDCs (p-GSK3β, nuclear β-catenin); type: cell-based, rat
EPDCs [4] = assay: Ex vivo adhesion assay of EPDCs to fibronectin; type: cell-based; conditions: 40 ng/ml
EPDCs [5] = assay: Western blots for differentiation and adhesion/migration markers in EPDCs; type: cell-based; conditions: exposure to CTGF-D4

COc1cccc(-c2cc(=O)c3ccccc3o2)c1N [PD98059]
CPC proliferation in CdM (adult rat CPCs [1]; ERK inhibitor): did not diminish CPC proliferation

IGF-1: human Insulin-like growth factor 1
CPC number after hypoxia (adult rat CPCs [2]): 14,894±559 cells

N#C/C(=C/c1ccc(O)c(O)c1)C(=O)NCc1ccccc1 [AG490]
cell number ratio to control cell number (adult rat CPCs [1]; 1 μM): 96.3±0.9% | cell number ratio to control cell number (adult rat CPCs [1]; 5 μM): 89.5±0.9% | CPC number (adult rat CPCs [1]; 10 μM, CPCs in CdM from p75MSCs or fibroblasts): inhibitory effect | cell number ratio to control cell number (adult rat CPCs [1]; 10 μM): 43.4±2.4% | CdM-mediated protection of CPCs under hypoxic conditions (adult rat CPCs [2]): abolished CdM-mediated protection

Insulin: recombinant human Insulin, dimer of A-chain and B-chain
p-Akt in CPCs (Akt): induced p-Akt in a dose-responsive manner | protection of CPCs against 48 hr of hypoxia (adult rat CPCs [2]): did not protect CPCs | CPC number after hypoxia (adult rat CPCs [2]): 13,507±1,473 cells | CPC survival and proliferation (adult rat CPCs [2]; recombinant human Insulin): increased also CPC survival and proliferation

O=[N+]([O-])c1ccc2c(c1)S(=O)(=O)C=C2 [Stattic, reference compound]
growth of CPCs in p75MSC CdM (adult rat CPCs [1]; 10 μM, vs DMSO vehicle, day 2 and 4): abolished | CdM-mediated protection of CPCs under hypoxic conditions (adult rat CPCs [2]): abolished CdM-mediated protection

B1: human CTGF: connective tissue growth factor, full-length polypeptide SEQ ID NO: 1 (protein, listed as Homo sapiens)
chain: MTAASMGPVRVAFVVLLALCSRPAVGQNCSGPCRCPDEPAPRCPAGVSLVLDGCGCCRVCAKQLGELCTERDPCDPHKGLFCDFGSPANRKIGVCTAKDGAPCIFGGTVYRSGESFQSSCKYQCTCLDGAVGCMPLCSMDVRLPSPDCPFPRRVKLPGKCCEEWVCDEPKDQTVVGPALAAYRLEDTFGPDPTMIRANCLVQTTEWSACSKTCGMGISTRVTNDNASCRLEKQSRLCMVRPCEADLEENIKKGKKCIRTPKISKPIKFELSGCTSMKTYRAKFCGVCTDGRCCTPHRTTTLPVEFKCPDGEVMKKNMMFIKTCACHYNCPGDNDIFESLYYRKMYGDMA
p-STAT3 in CPCs (STAT3): significantly induced p-STAT3

B2: Dkk-1: a secreted inhibitor of Lrp6 (protein, UniProt O94907 32-266, looked up)
Dickkopf-related protein 1: TLNSVLNSNAIKNLPPPLGGAAGHPGSAVSAAPGILYPGGNKYQTIDNYQPYPCAEDEECGTDEYCASPTRGGDAGVQICLACRKRRKRCMRHAMCCPGNYCKNGICVSSDQNHFRGEIEETITESFGNDHSTLDGYSRRTTLSSKMYHTKGQEGSVCLRSSDCASGLCCARHFWSKICKPVLKEGQVCTKHRRKGSHGLEIFQRCYCGEGLSCRIQKDHHQASNSSRLHTCQRH
protection of EPDCs conferred by CTGF-D4 (EPDCs [3]): significantly reduced the protection

B3: CTGF-D4: recombinant human C-terminal (domain 4) CTGF peptide, SEQ ID NO: 2 (protein, listed as Homo sapiens)
chain: MGKKCIRTPKISKPIKFELSGCTSMKTYRAKFCGVCTDGRCCTPHRTTTLPVEFKCPDGEVMKKNMMFIKTCACHYNCPGDNDIFESLYYRKMYGDMA
protection of CPCs against 48 hr of hypoxia (adult rat CPCs [2]): did not protect CPCs | signaling through the canonical Wnt pathway (p-GSK3β, nuclear β-catenin) (canonical Wnt pathway): promoted signaling through the canonical Wnt pathway | adhesion of EPDCs to fibronectin (EPDCs [4]): promoted adhesion of EPDCs to fibronectin | EMT-like differentiation (SMA, CD90, ETrB protein levels) (EPDCs [5]): promoted EMT-like differentiation | levels of Von Willebrand Factor (EPDCs [5]): did not seem to be affected
